Experiment in all cases: DTP human tumour cell line panel, 48 h
Assay [1] deals with HOP-92 NSCLC.
In assay [2] the test system is TK-10 renal.
Assay [3] relates to HCT-15 colon.
Assay [4] concerns DMS 273 small cell lung.
In assay [5] the test system is OVCAR-5 ovarian.
Assay [6] deals with SW-620 colon.
For assay [7], the system named is SNB-78 CNS.
Assay [8] relates to CAKI-1 renal.
In assay [9] the test system is NCI-H226 lung.
Assay [10] relates to T-47D breast.

These results are taken from PubChem BioAssay (NCI).

The TGI is the concentration at which net growth stops. Low values mean more potent growth arrest, high ones less potent growth arrest. In general, GI50 refers to the concentration at which growth is held to half of that of the control.

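Exposure lasted 48 hours, with cells grown in 96-well plates and compounds tested at five concentrations. The concentration for 50% growth inhibition is given as GI50. The concentration for full growth arrest is given as TGI.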

For the compound `NNC(=O)N/N=C1\CNC(=O)C(=O)C1c1nc2ccccc2s1` (stereo not given), the TGI in assay [1], in assay [2], in [3], in [4], in [5] and in assay [6] was more than 100 µM throughout. Further, the TGI in assay [7], in assay [8] and in assay [9] was more than 100 µM in each case.
`Cc1c(C)c2ccc(OC(C)C(=O)O)cc2oc1=O` (stereo not given): the TGI in assay [1], in [2], in [6], in [7], in assay [8] and in assay [9] was more than 100 µM each time.
Regarding `C/C(CC(=O)Nc1cccc(Cl)c1C)=N\N=C(N)N`, the TGI in [1], in [2], in [3], in assay [4], in assay [5] and in [7] was more than 100 µM in each case. Further, the TGI in assay [8] and in assay [9] was more than 100 µM each time.
Consider `O=c1c2ccccc2n2cnc3ccc(NCCNCCO)c1c32`, for which the TGI in assay [1] was 13.1 µM; in [2], 15.7 µM; in [10] it was 22.2 µM; in assay [3] it was 13.7 µM; in assay [5] it was 5.84 µM; in assay [6] it was 5.11 µM. Moreover, the TGI was determined as 15.5 µM in assay [7], 9.46 µM in assay [8] and 6.5 µM in [9].
In the case of `CC(C)=CC(=O)CC(=O)C(=O)NCCNC(=O)C(=O)CC(=O)C=C(C)C`, the TGI in assay [1], in assay [2], in [3], in [4], in assay [5] and in assay [6] was more than 50 µM throughout. Also, the TGI in [7], in assay [8] and in assay [9] was more than 50 µM throughout.
As for `CCOc1ccc(/C=C2/C(=O)N=C(N)N=C2N)cc1OCC`, the total growth inhibition concentration (TGI) in assay [1], in assay [2], in assay [3], in assay [4], in assay [5] and in assay [6] was more than 100 µM throughout. For the same compound, the TGI in [7], in assay [8] and in [9] was more than 100 µM throughout.
`O=c1[nH]c(=O)n(C2CC(O)C(O)C(CO)O2)cc1F` (stereo not given): the total growth inhibition concentration (TGI) in assay [1], in assay [2], in assay [3], in assay [5], in assay [6] and in assay [7] was more than 100 µM throughout. This compound had a TGI in [9] of more than 100 µM.
`O=C(Nc1ccc(Cl)c(Cl)c1)C1C(=O)N(c2ccc(Cl)c(Cl)c2)C(=O)/C1=N\O` (stereo not given): the TGI in assay [1], in [2], in assay [3], in assay [4], in assay [5] and in [6] was more than 100 µM throughout. Further, the total growth inhibition concentration (TGI) in [7], in [8] and in assay [9] was more than 100 µM in each case.
In the case of `C1=C(c2ccccc2)C(OC2Oc3ccccc3C=C2c2ccccc2)Oc2ccccc21` (stereo not given), the TGI in assay [1], in assay [2], in assay [3], in [4], in assay [5] and in assay [6] was more than 100 µM each time. The TGI in assay [7], in [8] and in [9] was more than 100 µM in each case.
Consider `Cn1cc(NC(=O)c2cc(NC(=O)CCCCCCCC(=O)Nc3cc(C(=O)Nc4cc(C(=O)NCCC(=N)N)n(C)c4)n(C)c3)cn2C)cc1C(=O)NCCC(=N)N`, for which the TGI in [1] is more than 100 µM; in [2], 36.7 µM; in assay [3], more than 100 µM; in assay [4] it was 25 µM; in [5] it was more than 100 µM; in [6], more than 100 µM. Also, the TGI stood at 93.5 µM in assay [7] and 47.5 µM in assay [8].
Consider `C1CCN2CC3CONC3C2C1` (stereo not given), for which the TGI in assay [2], in assay [3], in [4], in [5], in assay [6] and in assay [7] was more than 100 µM throughout. For the same compound, the TGI in assay [8] and in [9] was more than 100 µM each time.
With `Nc1c(-c2nc3ccccc3s2)[n+]([O-])c2ccccc2[n+]1[O-]`, the TGI in [1] was 62.3 µM; in [2], more than 100 µM; in [5] it was more than 100 µM; in [6] it was more than 100 µM; in assay [7], more than 100 µM; in [8], 81.8 µM. The compound further returned a concentration for total growth inhibition (TGI) in [9] of more than 100 µM.
For `Nc1c(C(=O)Nc2ccccc2O)[n+]([O-])c2ccccc2[n+]1[O-]`, the TGI was more than 100 µM in [1]; more than 100 µM in [3]; more than 100 µM in assay [4]; more than 100 µM in assay [5]; 48.6 µM in assay [6]; more than 100 µM in assay [7]. Moreover, the TGI in assay [8] and in assay [9] was more than 100 µM in each case.
On to `CC(C)(C)c1cc(C(OCCl)(C(F)(F)F)C(F)(F)F)c2c(c1)C(C(F)(F)F)(C(F)(F)F)OC21c2ccccc2C(=O)c2ccccc21`, for which the TGI in assay [2], in assay [3], in [4], in [5], in assay [6] and in assay [7] was more than 100 µM each time. Further, the TGI in [8] and in assay [9] was more than 100 µM throughout.
As for `CCOC(=O)COc1cccc2occc(=O)c12`, the TGI in assay [1], in assay [2], in assay [3], in assay [4], in assay [5] and in [6] was more than 100 µM in each case. In addition, the total growth inhibition concentration (TGI) in [7] and in assay [8] was more than 100 µM throughout.
For `COc1ccc2c3c(c(C(=O)O)oc13)C(CCC(=O)O)CC2` (stereo not given), the TGI in [1], in [2], in [3], in assay [4], in assay [6] and in [7] was more than 100 µM in each case. The compound further came in with a TGI in [8] of more than 100 µM.
As to `NC(=O)C(=O)Cc1nc2ccccc2s1`, the TGI in assay [1], in assay [2], in assay [3], in assay [5], in assay [6] and in assay [7] was more than 100 µM throughout. Further, in [9], the concentration for total growth inhibition (TGI) is more than 100 µM.
For the compound `CC(=O)c1c(O)c2c([nH]c1=O)CCCC2`, the total growth inhibition concentration (TGI) in assay [1] was more than 100 µM; in assay [2], more than 100 µM; in assay [3], more than 100 µM; in assay [4], 70.5 µM; in [6] it was more than 100 µM; in [7], more than 100 µM. The same compound displayed a TGI in assay [8] of more than 100 µM.
For `Cc1csc(CCC(N)C(=O)O)n1` (stereo not given), the TGI in assay [1], in assay [2], in [3], in assay [4], in assay [6] and in assay [7] was more than 100 µM each time. Also, the TGI in assay [8] and in assay [9] was more than 100 µM in each case.
With `C=CC(C)(O)CCC1C(=C)C(O)CC2C(C)(C)CCCC12C` (stereo not given), the TGI in assay [1] stood at 34 µM; in [2], 47.5 µM; in assay [10], 93.6 µM; in assay [3], 33.3 µM; in assay [5], 41.7 µM; in [6], 43.5 µM. For the same compound, the values for the TGI in assay [8] and in [9] were 68.2 µM and 29.2 µM, respectively.
As for `COc1cc2c3c(n(CCCN4CCSCC4)c(=O)c2cc1OC)-c1cc2c(cc1C3=O)OCO2`, the GI50 in assay [1] was 19.4 µM; in [2] it was 27.2 µM; in assay [10] it was more than 100 µM; in assay [3], more than 100 µM; in [5], 53.6 µM; in assay [6] it was 96.8 µM. Further, the results for the GI50 in assay [8] and in [9] were 21.1 µM and 59.9 µM, respectively. The TGI in assay [1] is 46.3 µM; in assay [2], 82.9 µM; in assay [10] it was more than 100 µM; in assay [3], more than 100 µM; in assay [5], more than 100 µM; in assay [6], more than 100 µM. Also, the TGI in [8] and in assay [9] was more than 100 µM throughout.
Take `Cc1ccc(O)cc1Nc1ccnc2cc(-c3ccccn3)ccc12`: the concentration for 50% growth inhibition (GI50) in assay [1] was 0.292 µM; in assay [2], 1.36 µM; in assay [10], 1.72 µM; in assay [3], 2.44 µM; in [5] it was 2.98 µM; in assay [6], 4.02 µM. In addition, the GI50 in assay [8] was 1.05 µM; in [9], 3.88 µM. In addition, the TGI is 3.02 µM in assay [1]; 4.23 µM in assay [2]; 9.86 µM in assay [10]; 6.79 µM in [3]; 9.21 µM in assay [5]; 7.65 µM in [6]. Besides, the TGI in assay [8] was 4.36 µM; in [9] it was 11.9 µM.
In the case of `Cc1cc(OC(=O)c2c(C)cc(OC(=O)c3c(C)cc(O)cc3O)cc2O)cc(O)c1C(=O)O`, the TGI in [1], in assay [2], in assay [4], in [5], in assay [6] and in assay [7] was more than 100 µM in each case. The concentration for total growth inhibition (TGI) in assay [8] is more than 100 µM.
As for `COc1cc(OC)c(/C=C/C(=O)c2c(N)cc(OC)cc2OC)c(OC)c1`, the GI50 in assay [1] was 17.6 µM; in assay [2] it was 6.64 µM; in assay [10], 0.478 µM; in assay [3] it was 0.369 µM; in assay [5] it was 2.51 µM; in assay [6], 0.326 µM. Moreover, the results for the concentration for 50% growth inhibition (GI50) in assay [8] and in assay [9] were 0.38 µM and 11.2 µM, respectively. In addition, the TGI in [1] is more than 94.8 µM; in assay [2] it was more than 100 µM; in assay [10] it was more than 100 µM; in [3] it was more than 100 µM; in [5], more than 100 µM; in [6], more than 100 µM. In addition, the TGI in assay [8] and in assay [9] was more than 100 µM in each case.
As to `Cc1cc(-c2ccco2)cc(C)c1/C=C/c1cncc(-c2nn[nH]n2)c1`, the GI50 in assay [1], in [2], in [10], in [3], in [5] and in assay [6] was more than 25 µM each time. Moreover, the GI50 in [8] and in assay [9] was more than 25 µM throughout. Also, the TGI in assay [1], in [2], in assay [10], in assay [3], in [5] and in [6] was more than 25 µM throughout. Moreover, the TGI in assay [8] and in [9] was more than 25 µM throughout.
On to `Cc1cn2c(/C=C3/C(=O)Nc4ccc(C(=O)O)cc43)c(C)nc2s1`, for which the GI50 in assay [1], in assay [2], in assay [10], in assay [3], in assay [5] and in assay [6] was more than 100 µM in each case. For the same compound, the GI50 in assay [8] and in assay [9] was more than 100 µM each time. Also, the TGI in assay [1], in [2], in [10], in assay [3], in assay [5] and in assay [6] was more than 100 µM in each case. For the same compound, the TGI in assay [8] and in assay [9] was more than 100 µM in each case.
`CCC1=C(c2ccc(OC)cc2)CC[C@]2(CCNC2=O)[C@@H]1C`: the TGI is more than 100 µM in assay [1]; more than 100 µM in assay [2]; more than 91.1 µM in assay [10]; more than 88.8 µM in assay [3]; more than 100 µM in assay [5]; more than 100 µM in assay [6]. Further, the concentration for total growth inhibition (TGI) in assay [8] is more than 89.7 µM; in assay [9], more than 100 µM.
In the case of `CCOC(=O)C1=C(C)N(Cc2ccc(Cl)cc2Cl)[C@]2(C#N)C(O)=C(Cl)C(Cl)=C(O)[C@]12C#N`, the GI50 in assay [1] is 17.9 µM; in assay [2] it was 84.7 µM; in [10] it was 31.9 µM; in [3] it was 62 µM; in assay [5] it was 2.7 µM; in assay [6], 31.8 µM. Also, the GI50 in [8] and in assay [9] was more than 100 µM in each case. The total growth inhibition concentration (TGI) in [1] is 44.2 µM; in assay [2], more than 100 µM; in assay [10], 78.4 µM; in assay [3] it was more than 100 µM; in [5] it was 31.3 µM; in assay [6] it was 82.9 µM. The TGI in assay [8] and in [9] was more than 100 µM in each case.
